Like-named read-outs stand apart in the source and are kept apart here.
What was measured:
Format in all cases: cell-based
[1] = test system: Leishmania donovani axenic amastigote; experiment: In vitro assay for growth inhibition of Leishmania donovani axenic amastigote (Cell TiterGlo luminescence); conditions: Leishmania donovani, L. donovani axenic amastigotes in vitro; read-out: L. donovani amastigotes EC50
Experimental: Abbreviations as used herein below have the corresponding meaning: • CPRG Chlorophenol Red-P-D-galactopyranoside • ATP adenosine triphosphate • BSA bovine serum albumin • DMSO dimethyl sulfoxide • FBS fetal bovine serum • PBS phosphate buffered saline • RPMI 1640 Rosweli Park Memorial Institute (RPMI) 1640 medium In Vitro Assay for Growth Inhibition of Leishmania donovani Axenic Amastiqote
Leishmania donovani axenic amastigote parasites are grown at 37° C., 5% CO2 in media made of RPMI 1640, 4 mM L-glutamine, 20% heat inactivated FBS, 100 units/ml of penicillin and 100 μg/ml of streptomycin, 23 μM folic acid, 100 μM adenosine, 22 mM D-glucose, 25 mM MES. The pH of media is adjusted to 5.5 at 37° C. using HCl. 20 μL of media is first dispensed into 384 well plates and 100 nL of the compounds of invention in DMSO are added to the plate wells. At the same time control compounds and DMSO are added to plates to serve as the positive and negative controls, respectively. 40 μL of parasite culture (9600 parasites) are then added to the plate wells. The plates are then placed into incubators. After two days incubation, 20 μL of Cell TiterGlo® (Promega) is added to the plate wells. The luminescence signal of each well is measured using the Envision reader (Perkin Elmer).

[2] = test system: Trypanosoma brucei brucei (Lister 427) strain; experiment: Assay for growth inhibition against Trypanosoma brucei brucei (Cell TiterGlo ATP luminescence); conditions: T. brucei brucei (Lister 427), read-out: T. Brucei (HAT) EC50
Experimental: Assay for Growth Inhibition Against Trypanosoma brucei brucei
The proliferation is quantified by the addition of Cell TiterGlo® (Promega®) a luminescent cell viability assay that measures the number of viable cells in culture based on the quantification of cellular ATP amount, which is an indicator of metabolically active cells.
Trypanosoma brucei brucei (Lister 427) strain was grown in Hirumi 9 (HMI-9) media supplemented with 10% v/v fetal bovine serum (FBS) and 10% v/v serum plus. For measurement of cell proliferation inhibition, test compounds were three fold serially diluted in duplicates to 384-well white plates, resulting in 10 dilutions for each compound. A volume of 40 μL of T. b. brucei culture (10,000 parasites/mL) was added to each well, and the assay plates were incubated at 37° C. for 2 days in a CO2 incubator. Growth inhibition was monitored by measuring ATP levels, which, is used as a surrogate marker for growth. Relative luminescence units were measured using TECAN® M1000 after 30 min of adding 40 μl of Cell TiterGlo®. IC50 values were determined by analyzing the data using HELIOS software. IC50 is defined as the lowest concentration of the compound that inhibited 50% growth of the T. b. brucei wild type strain compared to untreated controls.

[3] = test system: Trypanosoma cruzi amastigotes cultured in 3T3 fibroblast cells; experiment: Assay for growth inhibition of kinetoplastid parasite Trypanosoma cruzi (beta-galactosidase Tulahuen strain, CPRG readout); conditions: Trypanosoma cruzi, Fibroblast, T. cruzi amastigotes in 3T3 fibroblast cells; read-out: Buckner infectious T. cruzi EC50
Description: Assay for Growth Inhibition of Kinetoplastid Parasite Trypanosoma cruzi
Compounds of the invention can be assayed for inhibitor activity against Trypanosoma cruzi amastigotes cultured in 3T3 fibroblast cells. The assay is done using the mammalian stage (amastigotes) of T. cruzi that replicates in the intracellular space of host cells. The host cells are initially infected with the culture-derived trypomastigotes that rapidly invade and then divide as amastigotes. The protocol uses the Tulahuen strain of T. cruzi that has been engineered to express the E. coli beta-galactosidase gene (Lac-Z) (Antimicr. Agents Chemoth. 40:2592, 1996). This allows for a colorimetric readout by using the substrate CPRG and an absorbance plate reader.
3T3 fibroblast cells are re-suspended in RPMI-1640 medium without phenol red medium supplemented with 10% FBS (heat inactivated), 100 μg/ml penicillin, and 100 μg/ml streptomycin. Forty μL of suspension (1,000 cells) is dispensed into 384-well plates and incubated overnight at 37° C. temperature and in atmosphere containing 5% CO2. The following day, 100 nL of compounds of the invention in DMSO are added to plate wells containing 3T3 cells. At the same time control compounds (benznidazole and nifurtimox) and DMSO are added to plates to serve as the positive and negative controls, respectively. After that, 10 μL of media containing 10,000 T. cruzi trypomastigotes are added to each plate well and plates are placed back into incubators. After 6 day incubation, 10 μL of reagent solution (0.6 mM CPRG, 0.6% NP-40 in PBS) is added to plates and incubated at room temperature for 2 hours. Absorbance is then measured on SpectraMax GEMINI fluorimeter to determine relative number of T. cruzi cells present in each plate well.

SMILES | EC50 [1] [nM] | EC50 ([2]; Trypanosoma brucei) [nM] | EC50 [3] [nM] | EC50 [2] [nM]
Cc1cc(C(=O)Nc2ccc(F)c(-n3cc4cc(C(C)C)cnc4n3)c2)oc1C [Compound 114, N-{4-fluoro-3-[5-(propan-2-yl)-2H-pyrazolo[3,4-b]pyridin-2-yl]phenyl}-4,5-dimethylfuran-2-carboxamide] | 310 | 54 | 45 | 
CC(C)c1cnc2nn(-c3cc(NC(=O)N4C[C@H]5C[C@H]5C4)ccc3F)cc2c1 [Compound 223, (1R,5S)-N-{4-fluoro-3-[5-(propan-2-yl)-2H-pyrazolo[3,4-b]pyridin-2-yl]phenyl}-3-azabicyclo[3.1.0]hexane-3-carboxamide] | 82 | 64 | 37 | 
COCC1CN(c2cnc3nn(-c4cc(NC(=O)N5CC(F)C5)ccc4F)cc3c2)C1 [Compound 192] |  |  |  | < 23
O=C(Nc1ccc(F)c(-n2cc3cc(C4CCCCO4)cnc3n2)c1)N1CCC1 (centres unmarked) [Compound 288, N-(4-fluoro-3-(5-(tetrahydro-2H-pyran-2-yl)-2H-pyrazolo[3,4-b]pyridin-2-yl)phenyl)azetidine-1-carboxamide] | 176 | 260 |  | 
O=C(Nc1ccc(F)c(-n2cc3cc(C4COCCO4)cnc3n2)c1)N1CCC1 (centres unmarked) [Compound 289, N-{3-[5-(1,4-dioxan-2-yl)-2H-pyrazolo[3,4-b]pyridin-2-yl]-4-fluorophenyl}azetidine-1-carboxamide] | 199 | 208 |  | 
C[C@@H]1CN(c2cnc3nn(-c4cc(NC(=O)N5CC(F)C5)ccc4F)cc3c2)C[C@H](C)O1 [Compound 190, N-(3-{5-[(2R,6S)-2,6-dimethylmorpholin-4-yl]-2H-pyrazolo[3,4-b]pyridin-2-yl]-4-fluorophenyl)-3-fluoroazetidine-1-carboxamide] |  |  |  | > 50000
O=C(Nc1ccc(F)c(-n2cc3cc(N4CC(F)(F)C4)cnc3n2)c1)N1CCC1 [Compound 92, N-{3-[5-(3,3-difluoroazetidin-1-yl)-2H-pyrazolo[3,4-b]pyridin-2-yl]-4-fluorophenyl}azetidine-1-carboxamide] |  |  |  | < 23
O=C(Nc1ccc(F)c(-n2cc3cc(N4CC5(CC5)C4)cnc3n2)c1)N1CC(F)C1 [Compound 193, N-[3-(5-{5-azaspiro[2.3]hexan-5-yl}-2H-pyrazolo[3,4-b]pyridin-2-yl)-4-fluorophenyl}-3-fluoroazetidine-1-carboxamide] |  |  |  | < 23
COCCNc1cnc2nn(-c3cc(NC(=O)N4CC(F)C4)ccc3F)cc2c1 [Compound 185, 3-fluoro-N-(4-fluoro-3-{5-[(2-methoxyethyl)amino]-2H-pyrazolo[3,4-b]pyridin-2-yl]phenyl)azetidine-1-carboxamide] | 200 | < 23 |  | 
O=C(Nc1ccc(F)c(-n2cc3cc(-c4cccnc4)cnc3n2)c1)N1CC(F)C1 [Compound 189, 3-fluoro-N-{4-fluoro-3-[5-(pyridin-3-yl)-2H-pyrazolo[3,4-b]pyridin-2-yl]phenyl}azetidine-1-carboxamide] | 3 | < 23 |  | 
CC(C)c1cnc2nn(-c3cc(NC(=O)C4CC(F)C4)ccc3F)cc2c1 (centres unmarked) [Compound 121, 3-fluoro-N-{4-fluoro-3-[5-(propan-2-yl)-2H-pyrazolo[3,4-b]pyridin-2-yl]phenyl}cyclobutane-1-carboxamide] | 210 | 120 |  | 
O=C(Nc1ccc(F)c(-n2cc3cc(N4CCC45COC5)cnc3n2)c1)N1CC(F)C1 [Compound 191, 3-fluoro-N-[4-fluoro-3-(5-{6-oxa-1-azaspiro[3.3]heptan-1-yl}-2H-pyrazolo[3,4-b]pyridin-2-yl)phenyl}azetidine-1-carboxamide] |  |  |  | < 23
[2H]C([2H])([2H])c1nc(C)c(C(=O)Nc2ccc(F)c(-n3cc4cc(-c5ncccc5C)cnc4n3)c2)o1 [Compound 278, N-{4-fluoro-3-[5-(3-methylpyridin-2-yl)-2H-pyrazolo[3,4-b]pyridin-2-yl]phenyl}-2-(^2H3)methyl-4-methyl-1,3-oxazole-5-carboxamide] | 7 | 13 |  | 
O=C(Nc1ccc(F)c(-n2cc3cc(N4CC(F)C4)cnc3n2)c1)N1CCC1 [Compound 40, N-{4-fluoro-3-[5-(3-fluoroazetidin-1-yl)-2H-pyrazolo[3,4-b]pyridin-2-yl]phenyl}azetidine-1-carboxamide] |  |  |  | < 23
O=C(Nc1ccc(F)c(-n2cc3cc(-c4ncccc4Cl)cnc3n2)c1)N1CC(F)C1 [Compound 188, N-{3-[5-(3-chloropyridin-2-yl)-2H-pyrazolo[3,4-b]pyridin-2-yl]-4-fluorophenyl}-3-fluoroazetidine-1-carboxamide] | 2.4 | < 23 |  | 
O=C(Nc1ccc(F)c(-n2cc3cc(N4CCn5cnnc5C4)cnc3n2)c1)N1CC(F)C1 [Compound 186, 3-fluoro-N-[4-fluoro-3-(5-{5H,6H,7H,8H-[1,2,4]triazolo[4,3-a]pyrazin-7-yl}-2H-pyrazolo[3,4-b]pyridin-2-yl)phenyl}azetidine-1-carboxamide] | 460 | 240 |  | 
O=C(Nc1ccc(F)c(-n2cc3cc(-c4ccccn4)cnc3n2)c1)C1CC1 [Compound 12, N-{4-fluoro-3-[5-(pyridin-2-yl)-2H-pyrazolo[3,4-b]pyridin-2-yl]phenyl}cyclopropanecarboxamide] | 41 | < 23 |  | 
O=C(Nc1ccc(F)c(-n2cc3cc(N4CC5CCC(C4)O5)cnc3n2)c1)N1CC(F)C1 [Compound 184, 3-fluoro-N-[4-fluoro-3-(5-{8-oxa-3-azabicyclo[3.2.1]octan-3-yl}-2H-pyrazolo[3,4-b]pyridin-2-yl)phenyl}azetidine-1-carboxamide] | 7.3 | < 23 |  | 
O=C(Nc1ccc(F)c(-n2cc3cc(N4C[C@@H](F)[C@H](F)C4)cnc3n2)c1)N1CC(F)C1 [Compound 194, N-(3-{5-[(3R,4R)-3,4-difluoropyrrolidin-1-yl]-2H-pyrazolo[3,4-b]pyridin-2-yl]-4-fluorophenyl)-3-fluoroazetidine-1-carboxamide] |  |  |  | < 23
O=C(Nc1ccc(F)c(-n2cc3cc(N4CC(F)C4)cnc3n2)c1)N1CC(F)C1 [Compound 58, 3-fluoro-N-{4-fluoro-3-[5-(3-fluoroazetidin-1-yl)-2H-pyrazolo[3,4-b]pyridin-2-yl]phenyl}azetidine-1-carboxamide] |  |  |  | < 23
O=C(Nc1ccc(F)c(-n2cc3cc(-c4ncccc4F)cnc3n2)c1)N1CC(F)C1 [Compound 187, 3-fluoro-N-(4-fluoro-3-(5-(3-fluoropyridin-2-yl)-2H-pyrazolo[3,4-b]pyridin-2-yl)phenyl)azetidine-1-carboxamide] | 1.3 | < 23 |  | 
O=C(CC1CC1)Nc1ccc(F)c(-n2cc3cc(-c4ccccn4)cnc3n2)c1 [Compound 13, 2-cyclopropyl-N-{4-fluoro-3-[5-(pyridin-2-yl)-2H-pyrazolo[3,4-b]pyridin-2-yl]phenyl}acetamide] | 71 | < 23 |  | 
